The solubility (kinetic) is the concentration staying in solution when a stock, usually in DMSO, is diluted into the medium.

Here are results for 72 compounds from PubChem BioAssay AID1996.

In brackets after ≈: the same amount, converted by molar mass. Some results are limits rather than exact numbers.

For the data set the following is noted: buffer; pH 7.4; 200.0 µM.
`COC(=O)c1ccc(CNC(=O)COC(=O)c2cccs2)cc1` gave a kinetic solubility of 10.1 µg/mL (≈ 30.3 µM). Under `OC(CNCc1ccccc1)c1ccccc1` (configuration not stated) stands above 34.1 µg/mL; under `CC1CCCC(NC(=O)COC(=O)/C=C/c2ccc(F)cc2)C1C` (configuration not stated), 3.3 µg/mL (≈ 9.9 µM). Under `Cc1[nH]c2ccccc2c1C(=O)CN1CC(C)OC(C)C1` (configuration not stated) stands 39.4 µg/mL (≈ 138 µM); under `CNC(=S)Nc1ccc(C)c(NC(=S)NC)c1`, above 40.3 µg/mL. For `COc1ccc(C(C)NC(=O)C2CCCC2)cc1OC` (configuration not stated) the value was above 41.6 µg/mL; for `Cc1nc([N+](=O)[O-])c(SCC(N)=O)n1Cc1ccccc1`, above 46 µg/mL; for `Cc1csc2c(=O)n(CCO)c(=O)[nH]c12`, above 33.9 µg/mL. In turn, `Cc1ccc(NC(=O)CN2C(=O)NC(C)(CC(C)C)C2=O)cc1F` (configuration not stated) showed a kinetic solubility above 50.3 µg/mL. For `N#Cc1ccc(COC(=O)c2ccc3c(c2)OCO3)cc1` the value was 2.3 µg/mL (≈ 8.18 µM). For `COc1cccc(CNC(=O)CCCSc2ccccc2)c1` the value was 35 µg/mL (≈ 111 µM). `O=C(COC(=O)CCC(=O)c1cccs1)NCc1cccs1` gave a kinetic solubility above 50.6 µg/mL. For `COCc1nc2oc3ccc(F)cc3c(=O)c2cc1C(=O)OC` the value was 10.4 µg/mL (≈ 32.8 µM); for `CCC1(c2ccc(Cl)cc2)NC(=O)N(CC(=O)N2CCN(C(=O)c3ccco3)CC2)C1=O` (configuration not stated), above 68.8 µg/mL. Under `CCC1CN(C(=O)NCc2ccc(F)cc2)c2cc(Cl)ccc2O1` (configuration not stated) stands 1.3 µg/mL (≈ 3.73 µM); under `COc1ccc(OC)c(NC(=O)CC2Oc3ccccc3NC2=O)c1` (configuration not stated), 6.4 µg/mL (≈ 18.7 µM). Compound `O=C(c1ccccn1)N1CCN(c2cccc(C(F)(F)F)c2)CC1` had a solubility (kinetic) above 50.3 µg/mL. Take `O=C(COC(=O)c1ccccc1O)NCc1ccc2c(c1)OCO2`: the solubility (kinetic) came out at 5.7 µg/mL (≈ 17.3 µM). On to `CN(CC(=O)Nc1ccc(F)c(F)c1F)C(=O)C1=COCCO1`, for which the kinetic solubility was above 49.5 µg/mL. `NS(=O)(=O)c1ccc(CCNC(=O)c2ccc3ccccc3n2)cc1`: the kinetic solubility was determined as 10.6 µg/mL (≈ 29.8 µM). Compound `Cn1c(SCC(=O)Nc2ccc(Cl)cc2)nc(O)cc1=O` showed a kinetic solubility above 48.9 µg/mL. Under `O=C(O)CN1C(=O)C(=O)N(Cc2ccc(Cl)c(Cl)c2)C1=O` stands 46.1 µg/mL (≈ 139 µM); under `Cc1ccccc1Oc1ccccc1N`, 3.9 µg/mL (≈ 19.6 µM). For the compound `CC(NCc1ccc2c(c1)OCO2)c1ccccc1.Cl` (configuration not stated), the solubility (kinetic) stood at 41 µg/mL. This solubility kinetic lies about 11-fold higher than the previous one. Under `COc1ccc(S(=O)(=O)N2CCN(Cc3cccs3)CC2)cc1OC` stands 55.7 µg/mL (≈ 146 µM); under `Cc1[nH]c2ccc(C(=O)NC3CCC(C)CC3)cc2c1C` (configuration not stated), 0.9 µg/mL (≈ 3.16 µM).

`O=C(Nc1ccccc1O)c1ccc2c(c1)C(=O)N(Cc1ccco1)C2=O` returned a kinetic solubility of 1.3 µg/mL (≈ 3.59 µM). Under `CSc1ccc(Cl)c(C(=O)OCC(=O)N(C)CCC#N)c1` stands above 49 µg/mL; under `CCOC(=O)c1ccccc1NC(=O)CSc1nncn1C`, above 48.1 µg/mL; under `Cc1cccc(-n2c(C)c(C)c3c(N)ncnc32)c1`, 32.7 µg/mL (≈ 130 µM). For `COc1ccc(N2CC(C(=O)Nc3ccncc3)CC2=O)cc1` (configuration not stated) the value was above 46.7 µg/mL; for `O=C(O)CC1(CC(=O)Nc2ccc3ccccc3n2)CCCCC1`, above 49 µg/mL. `Cc1cccc(C(=O)NC(=S)NC(C)c2ccccc2)c1` (configuration not stated) displayed a solubility (kinetic) of 1 µg/mL (≈ 3.35 µM). Under `O=C(Nc1ccccc1)N1CCCN(c2nccc(C(F)(F)F)n2)CC1` stands 1.7 µg/mL (≈ 4.65 µM).

As for `CCCNC(=O)N1CCN(C(c2ccccc2)c2ccccc2)CC1`, the solubility (kinetic) came to 3.9 µg/mL (≈ 11.6 µM). For `CC(C)(C)S(=O)(=O)c1cnc(N2CCCCC2)nc1N` the value was above 44.8 µg/mL. As for `COc1ccccc1NCC(=O)c1ccc(C)c(C)c1`, the kinetic solubility was determined as 2.6 µg/mL (≈ 9.65 µM). Under `Cc1ccc(C(=O)C2=C(O)C(=O)N(Cc3ccco3)C2c2ccc(N(C)C)cc2)o1` (configuration not stated) stands above 61 µg/mL.

Compound `CCOc1cc(/C=C2\NC(=O)NC2=O)ccc1OC(C)C(=O)O` (configuration not stated) yielded a solubility (kinetic) above 48 µg/mL. For `O=C1Nc2ccc(Br)cc2C1(O)c1ccccc1` (configuration not stated) the value was above 45.6 µg/mL.

In turn, `Cc1ccc(N2C(=O)Cc3ccccc3C2=O)cc1` gave a solubility (kinetic) above 37.7 µg/mL. Compound `O=C(c1cccc(Cl)c1)N1CCC(c2nc3ccccc3[nH]2)CC1` yielded a solubility (kinetic) of 42.6 µg/mL (≈ 125 µM). Compound `O=C(Nc1ccc(Cl)cc1Cl)N1CCN(c2ncccn2)CC1` came in with a solubility (kinetic) above 52.8 µg/mL.

`Cc1cc(NC(=O)CN2C(=O)NC(C)(CC(C)C)C2=O)no1` (configuration not stated) yielded a kinetic solubility above 46.3 µg/mL.

The compound `Cc1ccccc1N1CCN(Cc2cc3c(cc2[N+](=O)[O-])OCO3)CC1` displayed a kinetic solubility of 3.5 µg/mL (≈ 9.85 µM). Under `Cc1cc(C)nc(Nc2nc3ccccc3o2)n1` stands above 36 µg/mL; under `O=C(COC(=O)c1ccco1)Nc1ccc2[nH]c(=O)[nH]c2c1`, 9.3 µg/mL (≈ 30.9 µM); under `COc1ccc(NC(=O)C2CCCN(S(C)(=O)=O)C2)c(OC)c1` (configuration not stated), above 51.4 µg/mL. `CC(=O)Nc1ccccc1C(=O)C(=O)Nc1ccc(F)c(Cl)c1` returned a solubility (kinetic) of 2.4 µg/mL (≈ 7.17 µM). On to `COc1cccc(-c2noc(CCCC(=O)N3CCOCC3)n2)c1`, for which the solubility (kinetic) is above 49.7 µg/mL. `COc1cc2nc(NC(=O)c3ccccc3)sc(=O)c2cc1OC` yielded a solubility (kinetic) below 0.4 µg/mL. For `CCN1CCN(c2ccc(NC(=O)c3ccco3)cc2Cl)CC1` the value was 45.2 µg/mL (≈ 135 µM).

`Cc1ccc(OCc2ccc(-c3ccccc3)cc2)c([N+](=O)[O-])n1`: the kinetic solubility came out at 0.4 µg/mL (≈ 1.25 µM). Compound `O=C(O)CC1SC(=Nc2ccc(O)cc2)NC1=O` (configuration not stated) registered a solubility (kinetic) above 39.9 µg/mL. Under `COc1ccc2ccc(O)c(CN3CC=C(c4ccccc4)CC3)c2c1` stands 1.6 µg/mL (≈ 4.63 µM); under `CC1CCC(NC(=O)Cn2c(=O)oc3ccccc32)CC1` (configuration not stated), 4.9 µg/mL (≈ 17 µM); under `O=C(NCCOc1ccccc1F)C1CC(=O)N(Cc2ccccc2)C1` (configuration not stated), above 53.5 µg/mL. Compound `COc1ccccc1CNC(=O)C1CCC(=O)N1C(C)C` (configuration not stated) had a solubility (kinetic) above 43.6 µg/mL. In turn, `CC1CCCN(S(=O)(=O)c2csc(C(N)=O)c2)C1` (configuration not stated) registered a solubility (kinetic) above 43.3 µg/mL. Under `Cc1ccc(NC(=O)CSc2nccn2C)cc1F` stands above 41.9 µg/mL; under `CC(C)C[C@H]1C(=O)N2CCCC2[C@]2(O)O[C@](NC(=O)[C@@H]3C=C4c5cccc6[nH]cc(c56)CC4N(C)C3)(C(C)C)C(=O)N12` (some centres not stated), 24.1 µg/mL (≈ 41.9 µM). Turning to `COc1ccc(NC(=O)CSc2ccc3c(c2)OCCO3)cc1S(N)(=O)=O`, the solubility (kinetic) is above 61.6 µg/mL. Under `Cc1cccc(-c2noc(CCCC(=O)NC3CCCCC3)n2)c1` stands 4.5 µg/mL (≈ 13.7 µM).

Take `O=C(NCc1ccc2c(c1)OCO2)Nc1ccc2nsnc2c1`: the kinetic solubility amounted to 2.5 µg/mL (≈ 7.61 µM).

In turn, `CCn1nc(C(=O)NNC(=O)C(Cc2ccccc2)NC(N)=O)c2ccccc2c1=O` (configuration not stated) came in with a kinetic solubility above 63.4 µg/mL. For `Cc1cc(=O)[nH]c(/N=C(\N)Nc2ccc(SC(F)F)cc2)n1` the value was 2 µg/mL (≈ 6.15 µM).

In the case of `NC1=NC(=O)/C(=C\c2cccnc2)S1`, the kinetic solubility is above 30.8 µg/mL. Under `O=[N+]([O-])c1cncc([N+](=O)[O-])c1Nc1cccc(O)c1` stands above 41.4 µg/mL; under `COc1ccc(NC(=O)/C(C#N)=C/c2ccc(-c3ccccc3C(=O)O)o2)cc1`, above 58.3 µg/mL. Under `COc1ccccc1N1C(=O)C(=O)N(C)C1=O` stands above 35.1 µg/mL; under `COc1ccccc1CNC(=O)c1ccc(Cl)c(S(=O)(=O)N2CCCC2)c1`, 17.9 µg/mL (≈ 43.8 µM); under `Nc1c(C(=O)CSc2ccccn2)c(=O)[nH]c(=O)n1C1CC1`, 24.6 µg/mL (≈ 77.3 µM).
